Experiments:
PI 4-kinase beta = PI 4-kinase beta (Homo sapiens (Human), UniProt Q9UBF8); test: Kinase Glo Luminescent Kinase Assay (Assay D); format: biochemical; details: 1 μM ATP, read-out: Assay D PI4Kβ IC50
Source text: (§1) Kinase Glo Luminescent Kinase Assay (Kglo) for PI 3-Kinase Alpha (A), Pb 3-Kinase Beta (B), Vps34 (C), PI 4-Kinase Beta (D)
(§2) The luminescence-based ATP detection reagent KinaseGlo was obtained from Promega, (Cat. No. V6714, Lot No. 236161) through Catalys, Wallisellen, Switzerland. L-alpha-phosphatidylinositol (PI, liver, bovine) was obtained from Avanti Polar Lipid (Cat. No. 840042C, Lot#LPI-274), Phosphatidylinositol-4,5-bisphosphate (PIP(4,5)2) was also obtained from Avanti Polar Lipid (Cat. No. 840046X). L-α-Phosphatidylserine (PS) was obtained from Avanti Polar Lipid (Cat. No. 840032C), n-Octylglucoside from Avanti Polar Lipid (Cat. No. 10634425001). Luminescence is a well established readout to determine ATP concentrations and can thus be used to follow the activity of many kinases regardless of their substrate. The Kinase Glo Luminescent Kinase Assay (Promega, Madison/WI, USA) is a homogeneous HTS method of measuring kinase activity by quantifying the amount of ATP remaining in solution following a kinase reaction.
(§3) 50 nL of compound dilutions were dispensed onto black 384-well low volume Non Binding Styrene (NBS) plates (Costar Cat. No. NBS#3676). L-α-phosphatidylinositol (PI), provided as 10 mg/ml solution in methanol, was transferred into a glass tube and dried under a nitrogen beam. It was then resuspended in 3% OctylGlucoside (1-O-n-octyl-beta-D-glucopyranoside) by vortexing and stored at 4° C. 5 μL of a mix of PI/OctylGlucoside with the PI 3-kinase alpha and PI 3-kinase beta subtypes, or Vps34 or PI 4-kinase beta were added. Kinase reactions were started by the addition of 5 μl of an ATP-mix containing in a final volume 10 μL 10 mM TRIS-HCl pH 7.5, 3 mM MgCl2, 50 mM NaCl, 0.05% CHAPS, 1 mM DTT and 1 μM ATP at room temperature. Reactions were stopped with 10 μl of KinaseGlo and plates were read 10 mins later in a Synergy2 reader using an integration time of 0.1 seconds per well. 2.5 μM of NVP-BGT226 (1-(3-(trifluoromethyl)-4-(piperazin-1-yl)phenyl)-8-(6-methoxypyridin-3-yl)-3-methyl-1H-imidazo[4,5-c]quinolin-2(3H)-one) was added to the assay plates to generate the 100% inhibition of the kinase reaction, and the 0% inhibition was given by the solvent vehicle (90% DMSO in water). (1-(3-(trifluoromethyl)-4-(piperazin-1-yl)phenyl)-8-(6-methoxypyridin-3-yl)-3-methyl-1H-imidazo[4,5-c]quinolin-2(3H)-one) was used as a reference compound and included in all assay plates in the form of 16 dilution points in duplicate.
(§4) IC50 values of the percentage inhibition of each compound at 8 concentrations (10, 3.0, 1.0, 0.3, 0.1, 0.030, 0.010 and 0.003 μM) n=2 were derived by fitting a sigmoidal dose-response curve to a plot of assay readout over inhibitor concentration as described. All fits were performed with the program XLfit4 (ID Business Solutions, Guildford, UK).

mTOR = mTOR (Homo sapiens (Human), UniProt P42345); test: Lanthascreen kinase binding assay (Assay G); details: GST-mTOR, Tracer-314
Source text: Lanthascreen™ Kinase Binding Assay for mTOR (G)
Binding Assays are based on the binding and displacement of an Alexa Fluor® 647-labeled, ATP-competitive kinase inhibitors to the kinase of interest. Invitrogen's “Kinase Tracers” have been developed to address a wide range of kinase targets and are based on ATP-competitive kinase inhibitors, making them suitable for detection of any compounds that bind to the ATP site or to an allosteric site altering the conformation of the ATP site.
In the Lanthascreen™ kinase binding assay, the donor (Eu^3+-anti-GST (glutathione 5-transferase) antibody) is excited at 340 nm and will transfer its energy to the acceptor (Alexa Fluor® 647-labeled ATP-competitive kinase inhibitor=Tracer-314). The emission from the Tracer-314 (Alexa Fluor® 647 inhibitor) can be monitored with a filter centered at 665 nm because it is located between the emission peaks of the donor, which is measured at 615/620 nm. The binding of both, the Tracer-314 and Eu^3+-anti-GST antibody, to the kinase results in a high degree of FRET from the Eu^3+-donor fluorophore to the Alexa-Fluor® 647-acceptor fluorophore on the Tracer-314. Binding of an inhibitor to the kinase competes for binding with the tracer, resulting in a loss of FRET.
50 nL of compound dilutions were dispensed onto white 384-well small volume polystyrene plate. Then 5 μL of GST-mTOR and Europium-anti-GST antibody followed by 5 μL of tracer-314 (final assay volume 10 μL) are incubated at RT. The standard reaction buffer for the Lanthascreen™ kinase binding assay contained 50 mM HEPES pH 7.5, 5 mM MgCl2, 1 mM EGTA, 0.01% Pluronic F-127. Plates are read 60 mins later in a Synergy2 reader using an integration time of 0.2 microseconds and a delay of 0.1 microseconds.
To calculate the emission ratio, the signal emitted at 665 nm from the acceptor (Alexa Fluor® 647-labeled Tracer-314) is divided by the signal emitted at 620 nm from the donor (Eu^3+ anti-GST antibody).
Control for the 0% inhibition was given by the solvent vehicle of the compounds (90% DMSO in H2O). Control for the relative 100% inhibition was performed by adding 10 μM in the mix containing GST-mTOR and Europium anti-GST antibody. An additional control for the absolute 0% inhibition is given by Eu^3+ anti-GST antibody without GST-mTOR. Standard compounds for the lipid kinase panel profiling were used as a reference and included in all assay plates in the form of 8 dilution points.

PI 3-kinase beta = PI 3-kinase beta (Homo sapiens (Human), UniProt P42338); test: Kinase Glo Luminescent Kinase Assay (Assay B); format: biochemical; details: 1 μM ATP, read-out: Assay B PI3Kβ IC50
Source text: as §1, §2, §3, §4

Chain of PI 4-kinase beta (Q9UBF8 whole entry): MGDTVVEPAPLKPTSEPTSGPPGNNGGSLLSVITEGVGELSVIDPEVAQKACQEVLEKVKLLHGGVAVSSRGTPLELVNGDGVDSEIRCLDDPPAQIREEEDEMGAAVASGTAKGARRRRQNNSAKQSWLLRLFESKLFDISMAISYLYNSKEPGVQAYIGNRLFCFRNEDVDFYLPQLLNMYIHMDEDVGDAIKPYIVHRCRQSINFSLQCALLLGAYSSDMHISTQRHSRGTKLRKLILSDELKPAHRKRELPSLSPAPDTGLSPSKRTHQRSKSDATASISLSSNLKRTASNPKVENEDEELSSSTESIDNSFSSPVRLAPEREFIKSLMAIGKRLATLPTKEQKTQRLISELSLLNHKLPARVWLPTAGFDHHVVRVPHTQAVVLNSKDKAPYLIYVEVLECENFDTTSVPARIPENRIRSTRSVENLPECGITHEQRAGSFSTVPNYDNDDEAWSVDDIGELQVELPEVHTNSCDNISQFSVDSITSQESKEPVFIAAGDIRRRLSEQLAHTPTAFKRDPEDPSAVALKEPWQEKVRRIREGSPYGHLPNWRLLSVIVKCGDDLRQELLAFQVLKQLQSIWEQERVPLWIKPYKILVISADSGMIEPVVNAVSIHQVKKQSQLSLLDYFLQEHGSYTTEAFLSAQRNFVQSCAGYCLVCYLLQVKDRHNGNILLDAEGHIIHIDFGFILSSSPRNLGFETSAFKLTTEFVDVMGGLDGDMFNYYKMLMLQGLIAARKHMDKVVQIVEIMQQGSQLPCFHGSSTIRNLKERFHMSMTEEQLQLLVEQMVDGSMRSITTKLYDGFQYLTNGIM
Chain of PI 3-kinase beta (P42338 2-1070): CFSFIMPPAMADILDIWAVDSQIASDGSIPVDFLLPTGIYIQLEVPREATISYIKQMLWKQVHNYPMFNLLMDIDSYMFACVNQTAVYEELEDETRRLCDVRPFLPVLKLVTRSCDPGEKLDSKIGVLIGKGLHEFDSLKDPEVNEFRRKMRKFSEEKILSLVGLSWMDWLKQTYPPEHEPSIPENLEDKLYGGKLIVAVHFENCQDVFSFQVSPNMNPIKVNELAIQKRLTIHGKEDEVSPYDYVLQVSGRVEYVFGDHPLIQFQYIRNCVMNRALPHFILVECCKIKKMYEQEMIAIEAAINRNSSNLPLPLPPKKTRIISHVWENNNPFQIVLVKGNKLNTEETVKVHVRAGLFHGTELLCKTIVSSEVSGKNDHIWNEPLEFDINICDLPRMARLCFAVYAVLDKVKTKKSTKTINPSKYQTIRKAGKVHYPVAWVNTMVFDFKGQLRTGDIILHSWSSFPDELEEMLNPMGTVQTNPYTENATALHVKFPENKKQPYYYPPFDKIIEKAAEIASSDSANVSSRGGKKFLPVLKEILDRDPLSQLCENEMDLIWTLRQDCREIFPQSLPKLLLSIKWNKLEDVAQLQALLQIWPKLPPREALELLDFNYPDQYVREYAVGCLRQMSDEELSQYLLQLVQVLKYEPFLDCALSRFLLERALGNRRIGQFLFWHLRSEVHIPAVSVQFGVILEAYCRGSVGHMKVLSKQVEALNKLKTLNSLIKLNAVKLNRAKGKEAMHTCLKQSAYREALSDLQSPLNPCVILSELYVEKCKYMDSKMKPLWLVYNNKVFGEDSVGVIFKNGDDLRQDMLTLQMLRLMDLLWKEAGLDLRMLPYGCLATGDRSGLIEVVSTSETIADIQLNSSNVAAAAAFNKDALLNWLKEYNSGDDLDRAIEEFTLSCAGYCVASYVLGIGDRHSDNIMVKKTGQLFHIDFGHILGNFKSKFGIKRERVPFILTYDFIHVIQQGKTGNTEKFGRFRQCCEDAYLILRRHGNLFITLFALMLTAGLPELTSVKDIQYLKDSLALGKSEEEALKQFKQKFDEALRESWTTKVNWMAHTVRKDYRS

Row | Compound | IC50 (PI 4-kinase beta) | IC50 (mTOR) | IC50 (PI 3-kinase beta)
1 | Cc1ncc(-c2cncc(-c3cc(S(=O)(=O)NCCCO)ccc3C)n2)s1 [Example 1, N-(3-Hydroxy-propyl)-4-methyl-3-[6-(2-methyl-thiazol-5-yl)-pyrazin-2-yl]-benzenesulfonamide] | > 9.1 µM | 5.25 µM | 6.16 µM
2 | Cc1ccc(S(=O)(=O)NCC2(C)COC2)cc1-c1cncc(-c2cn(C)nc2C)n1 [Example 4, Trans 3-[6-(1,3-Dimethyl-1H-pyrazol-4-yl)-pyrazin-2-yl]-4-methyl-N-(3-methyl-oxetan-3-ylmethyl)-benzenesulfonamide] | > 10 µM | 0.89 µM | 0.68 µM
3 | Cc1ncc(-c2cncc(-c3cc(S(=O)(=O)N[C@H]4CC[C@H](O)CC4)ccc3C)n2)s1 [Example 5, Trans N-(4-Hydroxycyclohexyl)-4-methyl-3-(6-(2-methylthiazol-5-yl)pyrazin-2-yl)benzenesulfonamide] | > 9.1 µM | 4.77 µM | 1.12 µM
4 | Cc1ccc(S(=O)(=O)NCCC(C)(C)O)cc1-c1cncc(-c2cnn(CCN3CCOCC3)c2)n1 [Example 9, N-(3-Hydroxy-3-methyl-butyl)-4-methyl-3-{6-[1-(2-morpholin-4-yl-ethyl)-1H-pyrazol-4-yl]-pyrazin-2-yl}-benzenesulfonamide] | > 9.1 µM | > 9.1 µM | > 9.1 µM
5 | Cc1ccc(S(=O)(=O)NCCC(C)(C)O)cc1-c1cncc(-c2cn(CCN3CCOCC3)nc2C)n1 [Example 10, N-(3-Hydroxy-3-methyl-butyl)-4-methyl-3-{6-[3-methyl-1-(2-morpholin-4-yl-ethyl)-1H-pyrazol-4-yl]-pyrazin-2-yl}-benzenesulfonamide] | > 10 µM | 9.8 µM | 8.5 µM
6 | Cc1ccc(S(=O)(=O)N[C@H]2CC[C@H](O)CC2)cc1-c1cncc(-c2cccnc2)n1 [Example 11, Trans N-(4-Hydroxy-cyclohexyl)-4-methyl-3-(6-pyridin-3-yl-pyrazin-2-yl)-benzenesulfonamide] | > 9.1 µM | 6.24 µM | 3.93 µM

Now from value to compound:

Row | IC50 (PI 4-kinase beta) | IC50 (mTOR) | IC50 (PI 3-kinase beta) | Compound
7 | > 9.78 µM | 1.18 µM | 0.71 µM | Cc1ccc(S(=O)(=O)NCC(C)(C)O)cc1-c1cncc(-c2cn(C)nc2C)n1 [Example 2, 3-[6-(1,3-Dimethyl-1H-pyrazol-4-yl)-pyrazin-2-yl]-N-(2-hydroxy-2-methyl-propyl)-4-methyl-benzenesulfonamide]
8 | > 9.55 µM | 3.85 µM | 1.45 µM | Cc1ccc(S(=O)(=O)NCCC(C)(C)O)cc1-c1cncc(-c2cn(C)nc2C)n1 [Example 3, 3-[6-(1,3-Dimethyl-1H-pyrazol-4-yl)-pyrazin-2-yl]-N-(3-hydroxy-3-methyl-butyl)-4-methyl-benzenesulfonamide]
9 | > 9.55 µM | 1.95 µM | 0.68 µM | Cc1ccc(S(=O)(=O)NCC(C)(C)CO)cc1-c1cncc(-c2cn(C)nc2C)n1 [Example 8, 3-[6-(1,3-Dimethyl-1H-pyrazol-4-yl)-pyrazin-2-yl]-N-(3-hydroxy-2,2-dimethyl-propyl)-4-methyl-benzenesulfonamide]
